# Where two headings read alike, the source gives them in different places.
# Columns and labels:
# [1] = log P by HPLC on reversed-phase column (C 18), EEC Directive 79/831 Annex V.A8; assay type: physicochemical; details: 55° C.; for LOGP_HCOOH: log P (HCOOH); for chromatographic logP: reversed-phase HPLC column (C 18)
# Experimental: Temperature: 55° C. […] Called log P (HCOOH) in the table. […] Called log P (neutral) in the table.
# [2] = system: Spodoptera frugiperda; assay: Spodoptera frugiperda spray test; assay type: in vivo; details: after 7 days, maize leaf discs; for pest or weed control at 500 g/ha: Spodoptera frugiperda, foliar, 168 h, read-out: efficacy (caterpillars killed)
# Outline: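 Maize leaf discs were sprayed with compound formulated in acetone/DMF and emulsifier-containing water, dried, then infested with Spodoptera frugiperda caterpillars. Percent kill was scored after 7 days, from 100% (all dead) to 0% (none dead).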
# [3] = system: Phaedon cochleariae; assay: Phaedon cochleariae spray test; assay type: in vivo; details: after 7 days, Chinese cabbage leaf discs
# Experimental: Phaedon cochleariae—Spray Test
# Solvent: 78.0 parts by weight of acetone • • 1.5 parts by weight of dimethylformamide
# Emulsifier: alkylaryl polyglycol ether
# To produce a suitable active ingredient formulation, 1 part by weight of active ingredient is dissolved with the specified parts by weight of solvent and made up with water containing an emulsifier concentration of 1000 ppm until the desired concentration is attained. To produce further test concentrations, the formulation is diluted with emulsifier-containing water.
# Discs of Chinese cabbage leaves (Brassica pekinensis) are sprayed with an active ingredient formulation of the desired concentration and, after drying, populated with larvae of the mustard beetle (Phaedon cochleariae).
# After 7 days, the efficacy in % is determined. 100% means that all the beetle larvae have been killed; 0% means that no beetle larvae have been killed.
# [4] = acidic range pH 2.7, 0.1% aqueous formic acid and acetonitrile, reversed-phase column (C 18)
# [5] = log P (neutral), HPLC reversed-phase column (C 18)
# [6] = acidic range at pH 2.7, 0.1% aqueous formic acid and acetonitrile, HPLC on reversed-phase column (C 18)
# [7] = log P, neutral range, HPLC on reversed-phase column (C 18)
# [8] = pH 7.8, LC-MS neutral range, pH 7.8, ammonium hydrogencarbonate/acetonitrile, read-out: log P (neutral)
# [9] = Phaedon cochleariae, foliar, 168 h, application rate 500 g/ha, read-out: efficacy (beetle larvae killed)
Structure (SMILES),"LOGP_HCOOH [1, 4]","LOGP_HCOOH [1, 6]","LOGP_NEUTRAL [1, 7]",efficacy (caterpillars killed) ([2]; application rate 100 g/ha),efficacy (caterpillars killed) ([2]; application rate 500 g/ha),efficacy (beetle larvae killed) ([3]; application rate 100 g/ha),efficacy (beetle larvae killed) ([3]; application rate 500 g/ha),other results
N#Cc1ccc(CNC(=O)c2cc(-c3ccc(C(F)(F)C(F)(F)F)c(F)c3)cc(NC(=O)C3CC3)n2)c(F)c1 [Example I-251],4.45,–,–,100%,100%,83%,100%,"LOGP_NEUTRAL [1, 5]: 4.38"
COC1(NC(=O)c2cc(-c3ccc(OC(F)(F)F)cc3)cc(NC(=O)C3CC3)n2)CC1 [Example I-140],–,3.58,–,100%,100%,100%,100%,–
O=C(NCc1ccc([N+](=O)[O-])s1)c1cc(-c2ccc(OC(F)(F)F)cc2)cc(NC(=O)C2CC2)n1 [Example I-240],4.10,–,–,83%,100%,–,100%,"LOGP_NEUTRAL [1, 5]: 4.04"
O=C(N[C@H]1CC[C@@H](C(F)(F)F)CC1)c1cc(-c2ccc(OC(F)(F)F)cc2)cc(NC(=O)C2CC2)n1 [Example I-145],–,4.90,4.72,100%,100%,100%,100%,–
O=C(NCC1CC1)c1cc(-c2ccc(C(F)(F)F)cc2)cc(NC(=O)C2CC2)n1 [Example I-012],3.78,–,3.66,–,100%,100%,100%,–
CC(C)NC(=O)c1cc(-c2ccc(OC(F)(F)F)cc2)cc(NC(=O)C2CC2)n1 [Example I-129],–,3.84,–,100%,100%,100%,100%,–
N#Cc1cc(F)c(CNC(=O)c2cc(-c3ccc(C(F)(F)C(F)(F)F)c(F)c3)cc(NC(=O)C3CC3)n2)c(F)c1 [Example I-248],4.55,–,–,100%,100%,100%,100%,–
O=C(NCCC(F)(F)F)c1cc(-c2ccc(C(F)(F)C(F)(F)F)c(F)c2)cc(NC(=O)C2CC2)n1 [Example I-246],4.37,–,–,100%,100%,83%,100%,"LOGP_NEUTRAL [1, 5]: 4.32"
N#Cc1ccc(NC(=N)c2cc(-c3ccc(OC(F)(F)F)cc3)cc(NC(=O)C3CC3)n2)cc1 [Example I-261],2.09,–,–,100%,100%,–,83%,"LOGP_NEUTRAL [1, 5]: 4.19"
O=C(NCc1ccncc1)c1cc(-c2ccc(C(F)(F)C(F)(F)F)c(F)c2)cc(NC(=O)C2CC2)n1 [Example I-277],2.17,–,–,100%,100%,–,83%,"LOGP_NEUTRAL [1, 5]: 3.33"
O=C(NCc1ccc(-c2nnco2)cc1)c1cc(-c2ccc(OC(F)(F)F)cc2)cc(NC(=O)C2CC2)n1 [Example I-112],–,3.41,3.37,83%,100%,–,100%,–
O=C(NC(=O)c1cc(-c2ccc(C(F)(F)C(F)(F)F)c(F)c2)cc(NC(=O)C2CC2)n1)c1ccc([N+](=O)[O-])cc1 [Example I-263],4.57,–,–,–,100%,–,100%,"LOGP_NEUTRAL [1, 5]: 4.54"
O=C(NC1CCC(C(F)(F)F)CC1)c1cc(-c2ccc(OC(F)(F)F)cc2)cc(NC(=O)C2CC2)n1 (stereo not shown) [Example I-146],–,4.77,4.60,–,83%,–,100%,–
N#CC1CCC(CNC(=O)c2cc(-c3ccc(OC(F)(F)F)cc3)cc(NC(=O)C3CC3)n2)CC1 (stereo not shown) [Example I-161],–,3.87,3.74,100%,100%,83%,100%,–
O=C(Cc1ccc(Br)cc1)Nc1cc(-c2ccc(OC(F)(F)F)cc2)cc(C(=O)NC2CC2)n1 [Example I-125],–,4.46,4.20,100%,100%,–,100%,–

# The next lines start with results.
"LOGP_HCOOH [1, 4]","LOGP_HCOOH [1, 6]","LOGP_NEUTRAL [1, 7]",Structure (SMILES),efficacy (caterpillars killed) ([2]; application rate 100 g/ha),efficacy (caterpillars killed) ([2]; application rate 500 g/ha),efficacy (beetle larvae killed) ([3]; application rate 100 g/ha),efficacy (beetle larvae killed) ([3]; application rate 500 g/ha),other results
3.30,–,3.23,CCNC(=O)c1cc(-c2ccc(C(F)(F)F)cc2)cc(NC(=O)C2CC2)n1 [Example I-016],–,100%,–,83%,–
3.19,–,2.75,O=C(NCc1ccccn1)c1cc(-c2ccc(C(F)(F)F)cc2)cc(NC(=O)C2CC2)n1 [Example I-007],–,83%,–,100%,–
4.23,–,–,N#Cc1ccc(CNC(=O)c2cc(-c3cc(F)c(C(F)(F)C(F)(F)F)c(F)c3)cc(NC(=O)C3CC3)n2)cc1 [Example I-271],–,100%,–,83%,–
4.28,–,–,N#Cc1ccc(CNC(=O)c2cc(-c3cc(F)c(C(F)(F)C(F)(F)F)c(F)c3F)cc(NC(=O)C3CC3)n2)cc1 [Example I-274],–,100%,–,100%,–
–,3.25,3.22,"N#Cc1ccc(CNC(=O)c2cc(-c3ccc(C(F)(F)F)cn3)cc(NC(=O)C3CC3)n2)cc1 [Example I-174, N-(4-Cyanobenzyl)-6′-[(cyclopropylcarbonyl)amino]-5-(trifluoromethyl)-2,4′-bipyridine-2′-carboxamide]",–,–,–,–,"chromatographic logP ([1]; pH 2.7, LC-MS acidic range, pH 2.7, 0.1% formic acid/acetonitrile, read-out: log P (acidic) / log P (HCOOH)): 3.25; chromatographic logP [1, 8]: 3.22; pest or weed control at 500 g/ha ([2]; application rate 500 g/ha): 100%; pest or weed control at 100 g/ha ([3]; Phaedon cochleariae, foliar, 168 h, application rate 100 g/ha, read-out: efficacy (beetle larvae killed)): 100%; pest or weed control at 500 g/ha [3, 9]: 100%"
–,–,3.54,"N#Cc1ccc(CNC(=O)c2cc(-c3ccc(Cl)cc3)cc(NC(=O)C3CC3)n2)cc1 [Example I-020, 4-(4-Chlorophenyl)-N-(4-cyanobenzyl)-6-[(cyclopropylcarbonyl)amino]pyridine-2-carboxamide]",–,–,–,–,"chromatographic logP ([1]; pH 2.7, log P (HCOOH), acidic range pH 2.7, 0.1% aqueous formic acid and acetonitrile, reversed-phase column (C 18), read-out: LOGP_HCOOH): 3.6; chromatographic logP [1, 8]: 3.54; pest or weed control at 500 g/ha ([2]; application rate 500 g/ha): 100%; pest or weed control at 500 g/ha [3, 9]: 100%"
4.03,–,3.95,Cc1cc(OC(F)(F)F)ccc1-c1cc(NC(=O)C2CC2)nc(C(=O)NCc2ccc(C#N)cc2)c1 [Example I-099],100%,100%,100%,100%,–
–,–,3.27,CC(=O)Nc1cc(-c2ccc(OC(F)(F)F)cc2)cc(C(=O)NCc2ccc(C#N)cc2)n1 [Example I-204],100%,100%,100%,100%,–
4.05,–,–,N#Cc1ccc(CNC(=O)c2cc(-c3c(Cl)cc(C(F)(F)C(F)(F)F)cc3Cl)cc(NC(=O)C3CC3)n2)cc1 [Example I-268],100%,100%,83%,83%,–
3.92,–,3.82,N#Cc1ccc(CNC(=O)c2cc(-c3ccc(C(F)(F)F)cc3)cc(NC(=O)CC3CC3)n2)cc1 [Example I-055],100%,100%,–,100%,–
4.51,–,–,N#Cc1ccc(CNC(=O)c2cc(-c3c(Cl)cc(C(F)(F)C(F)(F)F)cc3Cl)cc(NC(=O)C3CC3)n2)cc1 [Example I-265],–,100%,–,100%,–

# Source: US20190053492A1, “SUBSTITUTED PYRIDINE COMPOUNDS AS PESTICIDES” (Bayer CropScience Aktiengesellschaft, priority 2016, published 2019)
